Key:
Type in all cases: in vivo
[1] = test system: green peach aphid (Myzus persicae); assay: Myzus persicae spray test (MYZUPE); conditions: 120 h; for mortality at 100 g/ha: in Brassica rapa, foliar; for Emax at 4 g/ha / Emax at 20 g/ha / Emax at 100 g/ha: MYZUPE, 5 dat, read-out: % Efficacy; for Emax at 4 g/ha: 4 g ai/ha; for Emax at 20 g/ha: 20 g ai/ha; for Emax at 100 g/ha: 100 g ai/ha
Procedure: Myzus persicae—Spray Test
(§1) Solvent: 78.0 parts by weight acetone • 1.5 parts by weight dimethylformamide
(§2) Emulsifier: alkylarylpolyglycol ether
(§3) To produce a suitable preparation of active compound, 1 part by weight of active compound is mixed with the stated amount of solvents and is diluted with water, containing an emulsifier concentration of 1000 ppm, to the desired concentration. Further test concentrations are prepared by dilution with emulsifier containing water.
Chinese cabbage (Brassica pekinensis) leaf disks infected with all instars of the green peach aphid (Myzus persicae), are sprayed with a preparation of the active ingredient of the desired concentration.
After 5 days mortality in % is determined. 100% means all aphids have been killed and 0% means none of the aphids have been killed.
Myzus persicae—Spray Test (MYZUPE
After the specified period of time, mortality in % is determined. 100% means all aphids have been killed and 0% means none of the aphids have been killed.

[2] = test system: adult brown dog ticks (Rhipicephalus sanguineus); assay: Rhipicephalus sanguineus in-vitro contact test, adult brown dog ticks; conditions: Rhipicephalus sanguineus; 1 μg/cm^2 (=100 g/ha), after 48 hours; read-out: efficacy (ticks dead or moribund)
Procedure: Rhipicephalus sanguineus—In-Vitro Contact Tests with Adult Brown Dog Ticks
(§4) 9 mg compound is solved in 1 mL acetone and diluted with acetone to the desired concentration. 250 μL of the test solution is filled in 25 mL glass test tubes and homogeneously distributed on the inner walls by rotation and tilting on a shaking device (2 h at 30 rpm). With a compound concentration of 900 ppm, an inner surface of 44.7 cm^2 and a homogeneous distribution, a dose of 5 μg/cm^2 is achieved.
(§5) After the solvent has evaporated, each test tube is filled with 5-10 adult brown dog ticks (Rhipicephalus sanguineus), closed with a perforated lid and incubated in a lying position at room temperature and relative humidity. After 48 hours efficacy is determined. The ticks are patted on the ground of the tubes and are incubated on a heating plate at 45-50° C. for at most 5 minutes. Immotile or uncoordinated moving ticks, which are not able to escape the heat by climbing upwards, are marked as dead or moribund.
An efficacy of 100% means all ticks are dead or moribund; 0% means no ticks are dead or moribund.

[3] = test system: fall armyworm larvae (Spodoptera frugiperda); assay: Spodoptera frugiperda spray test (SPODFR); conditions: 168 h; for mortality at 100 g/ha: in Zea mays
Procedure: Spodoptera frugiperda—Spray Test
as §1, §2, §3
Maize (Zea mays) leaf sections are sprayed with a preparation of the active ingredient of the desired concentration. Once dry, the leaf sections are infested with fall armyworm larvae (Spodoptera frugiperda).
After 7 days mortality in % is determined. 100% means all caterpillars have been killed and 0% means none of the caterpillars have been killed.
Spodoptera frugiperda—Spray Test (SPODFR
After the specified period of time, mortality in % is determined. 100% means all caterpillars have been killed and 0% means none of the caterpillars have been killed.

[4] = test system: Rhipicephalus (Boophilus) microplus larvae (strain Parkhurst, resistant against synthetic pyrethroids); assay: Rhipicephalus (Boophilus) microplus in-vitro contact test, larval cattle tick; conditions: 1 μg/cm^2 (=100 g/ha), after 48 hours; for pest or weed control at 1 µg/cm2: Rhipicephalus microplus, read-out: efficacy (larvae dead or moribund)
Procedure: Rhipicephalus (Boophilus) Microplus—In-Vitro Contact Tests Larval Cattle Tick (Strain Parkhurst, Resistant Against Synthetic Pyrethroids
as §4
After the solvent has evaporated, each test tube is filled with 20-50 cattle tick larvae (Rhipicephalus microplus), closed with a perforated lid and incubated in a horizontal position at 85% relative humidity and 27° C. in an incubator. After 48 hours efficacy is determined. The larvae are patted on the ground of the tubes and negative geotactic behavior is recorded.

[5] = test system: adult cat fleas (Ctenocephalides felis); assay: Ctenocephalides felis in-vitro contact test, adult cat flea; conditions: Ctenocephalides felis; 1 μg/cm^2 (=100 g/ha), after 48 hours; read-out: efficacy (fleas dead or moribund)
Procedure: Ctenocephalides Felis—In-Vitro Contact Tests Adult Cat Flea
as §4
as §5, with “cat fleas (Ctenocephalides felis),” for “brown dog ticks (Rhipicephalus sanguineus),”, “fleas” for “ticks”, “fleas,” for “ticks,”
An efficacy of 100% means all fleas are dead or moribund; 0% means no fleas are dead or moribund.

[6] = test system: brown planthopper (Nilaparvata lugens); assay: Nilaparvata lugens spray test; conditions: for mortality at 500 g/ha: Nilaparvata lugens, in Oryza sativa, 96 h; for mortality: 500 g/ha, rice plants, after 4 days
Procedure: Nilaparvata lugens—Spray Test
(§6) Solvent: 78.0 parts by weight of acetone • • 1.5 parts by weight of dimethylformamide
as §2, §3
Rice plants (Oryza sativa) are sprayed with a preparation of the active ingredient of the desired concentration and the plants are infested with the brown planthopper (Nilaparvata lugens).
After 4 days mortality in % is determined. 100% means all planthoppers have been killed and 0% means none of the planthoppers have been killed.

[7] = test system: larvae of the southern green stink bug (Nezara viridula); assay: Nezara viridula spray test; conditions: for mortality at 500 g/ha: Nezara viridula, in Hordeum vulgare, 96 h; for mortality: 500 g/ha, barley plants, after 4 days
Procedure: Nezara viridula—Spray Test
as §6, §2
as §3, with “solvent,” for “solvents”, “and the concentrate” for “and”
Barley plants (Hordeum vulgare) are sprayed with a test solution containing the desired concentration of the active ingredient and are infested with larvae of the southern green stink bug (Nezara viridula).
After 4 days mortality in % is determined. 100% means all the stink bugs have been killed; 0% means none of the stink bugs have been killed.

[8] = test system: larvae of the banded cucumber beetle (Diabrotica balteata); assay: Diabrotica balteata spray test; conditions: 100 g/ha (=32 μg/well), wheat seeds, after 7 days; for pest or weed control at 32 µg/disc, 100 g/ha: Diabrotica balteata, 168 h, read-out: efficacy (seedlings grown)
Procedure: Diabrotica balteata—Spray Test
as §6, §2
as §3, with “solvent,” for “solvents”, “and the concentrate” for “and”
Soaked wheat seeds (Triticum aestivum) are placed in a multiple well plate filled with agar and some water and are incubated for 1 day to germinate (5 seeds per well). The germinated wheat seeds are sprayed with a test solution containing the desired concentration of the active ingredient. Afterwards each unit is infected with 10-20 larvae of the banded cucumber beetle (Diabrotica balteata).
After 7 days efficacy in % is determined. 100% means all the seedlings have grown up like in the untreated, uninfected control; 0% means none of the seedlings have grown.

SMILES	mortality at 100 g/ha [1] [%]	pest or weed control at 1 µg/cm2, 100 g/ha [2] [%]	mortality at 100 g/ha [3] [%]	pest or weed control at 1 µg/cm2 [4] [%]	mortality at 500 g/ha [6] [%]	mortality at 500 g/ha [7] [%]	pest or weed control at 32 µg/disc, 100 g/ha [8] [%]	also measured
Cc1nc([C@H](C)NC(=O)c2cc(OC(F)(F)F)cc(C3CC3)c2)n(-c2cnc(C(=O)N(C)C3CC3)cn2)n1 [Example I-032, N-Cyclopropyl-5-(5-{(1S)-1-[3-cyclopropyl-5-(trifluoromethoxy)benzamido]ethyl}-3-methyl-1H-1,2,4-triazol-1-yl)-N-methylpyrazine-2-carboxamide]	90	80	100	100	100			pest or weed control at 1 µg/cm2 [5]: 100%
Cc1nc([C@H](C)NC(=O)c2cc(F)cc(OC(F)(F)F)c2)n(-c2cnc(C(N)=O)cn2)n1 [Example I-069]								mortality [6]: 90%
Cc1nc([C@H](C)NC(=O)c2cc(C(F)(F)F)cc(C(F)(F)F)c2)n(-c2cnc(C(N)=O)cn2)n1 [Example I-012]	100	100	100	100	100	100		
C=C(CC)c1ccc(C2C=CC=C2[C@H](C)CC(=C)c2cc(C)cc(C(C)(C)C)c2)cc1 (stereo partly shown) [I-038 Known from WO2019206799, reference compound]								Emax at 4 g/ha [1]: 0%; Emax at 20 g/ha [1]: 70%; Emax at 100 g/ha [1]: 100%; Emax at 4 g/ha ([3]; SPODFR, 4 g ai/ha, 7 dat, read-out: % Efficacy): 0%; Emax at 20 g/ha ([3]; SPODFR, 20 g ai/ha, 7 dat, read-out: % Efficacy): 100%; Emax at 100 g/ha ([3]; SPODFR, 100 g ai/ha, 7 dat, read-out: % Efficacy): 100%
CNC(=O)c1cnc(-n2nc(C)nc2[C@H](C)NC(=O)c2cc(C(F)(F)F)cc(C(F)(F)F)c2)cn1 [Example I-011]	90	100	100	100		100		pest or weed control at 1 µg/cm2 [5]: 100%
Cc1nc([C@H](C)NC(=O)c2cc(OC(F)(F)F)cc(OC(F)(F)F)c2)n(-c2cnc(C(N)=O)cn2)n1 [Example I-033]			100			100	100	
C[C@H](NC(=O)c1cc(OC(F)(F)F)cc(S(C)(=O)=O)c1)c1ncnn1-c1cnc(C(=O)N(C)C)cn1 [Example I-017]	100	100		100	100	100	100	Emax at 4 g/ha [1]: 70%; Emax at 20 g/ha [1]: 90%; Emax at 100 g/ha [1]: 100%; pest or weed control at 1 µg/cm2 [5]: 100%
C[C@H](NC(=O)c1cc(OC(F)(F)F)cc(S(C)(=O)=O)c1)c1ncnn1-c1cnc(C(=O)NC2CC2)cn1 [Example I-020]	100			100	100	100	100	
C[C@H](NC(=O)c1cc(C(F)F)cc(C(F)F)c1)c1nc(C2CC2)nn1-c1cnc(C(N)=O)cn1 [Example I-071]								efficacy (seedlings grown) [8]: 100%; mortality [7]: 90%; mortality [6]: 90%
C[C@H](NC(=O)c1cc(OC(F)(F)F)cc(S(C)(=O)=O)c1)c1ncnn1-c1cnc(C(N)=O)cn1 [Example I-028]	90		100	90		100	100	
Cc1nc([C@H](C)NC(=O)c2cc(C(F)(F)F)cc(S(C)(=O)=O)c2)n(-c2cnc(C(N)=O)cn2)n1 [Example I-051]								efficacy (larvae dead or moribund) [4]: 100%; mortality [7]: 90%
C[C@H](NC(=O)c1cc(OC(F)(F)F)cc(OC(F)(F)F)c1)c1ncnn1-c1cnc(C(=O)N(C)C2CC2)cn1 [Example I-026]		100	100	100	100	100	100	pest or weed control at 1 µg/cm2 [5]: 100%
Cc1nc([C@H](C)NC(=O)c2cc(OC(F)(F)F)cc(OC(F)(F)F)c2)n(-c2cnc(C(=O)N(C)C3CC3)cn2)n1 [Example I-031]			100	100	90			pest or weed control at 1 µg/cm2 [5]: 80%
Cc1nc([C@H](C)NC(=O)c2cc(C(F)(F)F)cc(C(F)(F)F)c2)n(-c2cnc(C(=O)NC3CC3)cn2)n1 [Example I-014]	90	100	100	100	100	90		
C[C@H](NC(=O)c1cc(OC(F)(F)F)cc(C2(C#N)CC2)c1)c1nc(C2CC2)nn1-c1cnc(C(N)=O)cn1 [Example I-072]								efficacy (seedlings grown) [8]: 100%; mortality [7]: 90%; mortality [6]: 90%
CNC(=O)c1cnc(-n2nc(C)nc2[C@H](C)NC(=O)c2cc(OC(F)(F)F)cc(OC(F)(F)F)c2)cn1 [Example I-034]		80	100	100		100	80	
C[C@H](NC(=O)c1cc(F)cc(OC(F)(F)F)c1)c1ncnn1-c1cnc(C(N)=O)cn1 [Example I-068]								mortality [7]: 90%
C[C@H](NC(=O)c1cc(C(F)F)nc(C(F)F)c1)c1nc(C2CC2)nn1-c1cnc(C(N)=O)cn1 [Example I-094, 5-[5-[(1S)-1-[[2,6-bis(difluoromethyl)pyridine-4-carbonyl]amino]ethyl]-3-cyclopropyl-1,2,4-triazol-1-yl]pyrazine-2-carboxamide]			83			100	100	

Source: patent US20240368125A1, “NOVEL PYRAZINYL-TRIAZOLE COMPOUNDS AS PESTICIDES” (Bayer Aktiengesellschaft, priority 2021, published 2024)
